From patent US20220119354A1, “DIAMINO-SUBSTITUTED PYRIDINES AND PYRIMIDINES AS HERBICIDES” (FMC Corporation, priority 2019, published 2022)

Key:
Format in all cases: in vivo
[1] = test system: barnyardgrass (Echinochloa crus-galli); test: Test A preemergence, barnyardgrass; settings: 0 to 100 scale; for Barnyardgrass plant response rating: 0 is no effect, 100 is complete control
Summary of the method: (§1)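 0–100 visual control rating, ~10 d post-treatment, greenhouse. Pre = directed soil spray on seeded loam/sand; post = spray at 1–2 leaf stage. Surfactant-containing solvent formulation.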

[2] = test system: kochia (Kochia scoparia); test: Test A preemergence, kochia; settings: 0 to 100 scale; for Kochia plant response rating: 0 is no effect, 100 is complete control
Summary of the method: as §1

[3] = test system: ragweed (common ragweed, Ambrosia elatior); test: Test A preemergence, ragweed; settings: 0 to 100 scale; for Ragweed plant response rating: 0 is no effect, 100 is complete control
Summary of the method: as §1

[4] = test system: ryegrass, Italian (Lolium multiflorum); test: Test A preemergence, Italian ryegrass; settings: 0 to 100 scale; for Ryegrass, Italian plant response rating: 0 is no effect, 100 is complete control
Summary of the method: as §1

[5] = test system: foxtail, giant (Setaria faberii); test: Test A preemergence, giant foxtail; settings: 0 to 100 scale; for Foxtail, Giant plant response rating: 0 is no effect, 100 is complete control
Summary of the method: as §1

[6] = test system: pigweed (Amaranthus retroflexus); test: Test A preemergence, pigweed; settings: 0 to 100 scale; for Pigweed plant response rating: 0 is no effect, 100 is complete control
Summary of the method: as §1

[7] = test system: barnyardgrass (Echinochloa crus-galli); test: Test A postemergence, barnyardgrass; settings: 0 to 100 scale
Summary of the method: as §1

[8] = test system: kochia (Kochia scoparia); test: Test A postemergence, kochia; settings: 0 to 100 scale
Summary of the method: as §1

[9] = test system: ragweed (common ragweed, Ambrosia elatior); test: Test A postemergence, ragweed; settings: 0 to 100 scale
Summary of the method: as §1

[10] = test system: ryegrass, Italian (Lolium multiflorum); test: Test A postemergence, Italian ryegrass; settings: 0 to 100 scale
Summary of the method: as §1

[11] = test system: foxtail, giant (Setaria faberii); test: Test A postemergence, giant foxtail; settings: 0 to 100 scale
Summary of the method: as §1

[12] = test system: pigweed (Amaranthus retroflexus); test: Test A postemergence, pigweed; settings: 0 to 100 scale
Summary of the method: as §1

[13] = test system: wheat (Triticum aestivum); test: Test A postemergence, wheat; settings: 0 to 100 scale
Summary of the method: as §1

[14] = test system: corn (Zea mays); test: Test A postemergence, corn; settings: 0 to 100 scale
Summary of the method: as §1

[15] = test system: blackgrass (Alopecurus myosuroides); test: Test A postemergence, blackgrass; settings: 0 to 100 scale
Summary of the method: as §1

[16] = test system: galium (catchweed bedstraw, Galium aparine); test: Test A postemergence, galium; settings: 0 to 100 scale
Summary of the method: as §1

[17] = test system: rice (Oryza sativa); test: Test B flooded paddy test, rice; settings: Flood, 250 g ai/ha, applied to paddy water, 2-leaf stage, visual evaluation after 13 to 15 d
Summary of the method: (§2)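 Plants grown to 2-leaf stage. Compounds applied directly into paddy water flooded 3 cm above soil, with that depth kept throughout. After 13–15 d in greenhouse, visual rating versus controls on a 0–100 scale (0 no effect, 100 complete control).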

[18] = test system: sedge, umbrella (small-flower umbrella sedge, Cyperus difformis); test: Test B flooded paddy test, umbrella sedge; settings: Flood, 250 g ai/ha, applied to paddy water, 2-leaf stage, visual evaluation after 13 to 15 d
Summary of the method: as §2

[19] = test system: ducksalad (Heteranthera limosa); test: Test B flooded paddy test, ducksalad; settings: Flood, 250 g ai/ha, applied to paddy water, 2-leaf stage, visual evaluation after 13 to 15 d
Summary of the method: as §2

[20] = test system: barnyardgrass (Echinochloa crus-galli); test: Test B flooded paddy test, barnyardgrass; settings: Flood, 250 g ai/ha, applied to paddy water, 2-leaf stage, visual evaluation after 13 to 15 d
Summary of the method: as §2

[21] = 31 g ai/ha, 0 no effect, 100 complete control
[22] = 125 g ai/ha, 0 no effect, 100 complete control

C[C@@H](Nc1nc(N)c(C(F)(F)F)c(C(F)F)n1)c1cc2ccccc2s1 [Compound 109]
Barnyardgrass plant response rating ([1]; 31 g ai/ha): 0 | Barnyardgrass plant response rating ([1]; 125 g ai/ha): 0 | Kochia plant response rating ([2]; 31 g ai/ha): 80 | Kochia plant response rating ([2]; 125 g ai/ha): 90 | Ragweed plant response rating ([3]; 31 g ai/ha): 30 | Ragweed plant response rating ([3]; 125 g ai/ha): 90 | Ryegrass, Italian plant response rating ([4]; 31 g ai/ha): 20 | Ryegrass, Italian plant response rating ([4]; 125 g ai/ha): 40 | Foxtail, Giant plant response rating ([5]; 31 g ai/ha): 0 | Foxtail, Giant plant response rating ([5]; 125 g ai/ha): 30 | Pigweed plant response rating ([6]; 31 g ai/ha): 70 | Pigweed plant response rating ([6]; 125 g ai/ha): 90 | Plant response rating, Barnyardgrass [7, 21]: 0 | Plant response rating, Barnyardgrass [7, 22]: 0 | Plant response rating, Kochia [8, 21]: 50 | Plant response rating, Kochia [8, 22]: 70 | Plant response rating, Ragweed [9, 21]: 50 | Plant response rating, Ragweed [9, 22]: 60 | Plant response rating, Ryegrass, Italian [10, 21]: 0 | Plant response rating, Ryegrass, Italian [10, 22]: 0 | Plant response rating, Foxtail, Giant [11, 21]: 0 | Plant response rating, Foxtail, Giant [11, 22]: 20 | Plant response rating, Pigweed [12, 21]: 80 | Plant response rating, Pigweed [12, 22]: 90 | Plant response rating, Wheat [13, 21]: 0 | Plant response rating, Wheat [13, 22]: 0 | Plant response rating, Corn [14, 21]: 0 | Plant response rating, Corn [14, 22]: 0 | Plant response rating, Blackgrass [15, 21]: 10 | Plant response rating, Blackgrass [15, 22]: 10 | Plant response rating, Galium [16, 21]: 40 | Plant response rating, Galium [16, 22]: 70 | Plant response rating, Rice (0 to 100 scale, 0 is no effect, 100 is complete control) [17]: 20 | Plant response rating, Sedge, Umbrella (0 to 100 scale, 0 is no effect, 100 is complete control) [18]: 75 | Plant response rating, Ducksalad (0 to 100 scale, 0 is no effect, 100 is complete control) [19]: 65 | Plant response rating, Barnyardgrass (0 to 100 scale, 0 is no effect, 100 is complete control) [20]: 35

C[C@@H](Nc1ncc(C(F)(F)F)c(N)n1)c1cc2cc(C(F)(F)F)ccc2o1 [Compound 7]
Plant response rating, Barnyardgrass ([1]; 125 g ai/ha): 0 | Plant response rating, Barnyardgrass ([1]; 500 g ai/ha): 0 | Plant response rating, Kochia ([2]; 125 g ai/ha): 0 | Plant response rating, Kochia ([2]; 500 g ai/ha): 0 | Plant response rating, Ragweed ([3]; 125 g ai/ha): 0 | Plant response rating, Ragweed ([3]; 500 g ai/ha): 0 | Plant response rating, Ryegrass, Italian ([4]; 125 g ai/ha): 0 | Plant response rating, Ryegrass, Italian ([4]; 500 g ai/ha): 0 | Plant response rating, Foxtail, Giant ([5]; 125 g ai/ha): 0 | Plant response rating, Foxtail, Giant ([5]; 500 g ai/ha): 0 | Plant response rating, Pigweed ([6]; 125 g ai/ha): 0 | Plant response rating, Pigweed ([6]; 500 g ai/ha): 30 | Plant response rating, Barnyardgrass ([7]; 125 g ai/ha): 0 | Plant response rating, Barnyardgrass ([7]; 500 g ai/ha): 0 | Plant response rating, Kochia ([8]; 125 g ai/ha): 0 | Plant response rating, Kochia ([8]; 500 g ai/ha): 0 | Plant response rating, Ragweed ([9]; 125 g ai/ha): 0 | Plant response rating, Ragweed ([9]; 500 g ai/ha): 0 | Plant response rating, Ryegrass, Italian ([10]; 125 g ai/ha): 0 | Plant response rating, Ryegrass, Italian ([10]; 500 g ai/ha): 0 | Plant response rating, Foxtail, Giant ([11]; 125 g ai/ha): 0 | Plant response rating, Foxtail, Giant ([11]; 500 g ai/ha): 0 | Plant response rating, Pigweed ([12]; 125 g ai/ha): 30 | Plant response rating, Pigweed ([12]; 500 g ai/ha): 90 | Plant response rating, Wheat ([13]; 125 g ai/ha): 0 | Plant response rating, Wheat ([13]; 500 g ai/ha): 0 | Plant response rating, Corn ([14]; 125 g ai/ha): 0 | Plant response rating, Corn ([14]; 500 g ai/ha): 0 | Plant response rating, Blackgrass ([15]; 125 g ai/ha): 0 | Plant response rating, Blackgrass ([15]; 500 g ai/ha): 0 | Plant response rating, Galium ([16]; 125 g ai/ha): 0 | Plant response rating, Galium ([16]; 500 g ai/ha): 20 | Plant response rating, Rice (0 to 100 scale, 0 is no effect, 100 is complete control) [17]: 0 | Plant response rating, Sedge, Umbrella (0 to 100 scale, 0 is no effect, 100 is complete control) [18]: 0 | Plant response rating, Ducksalad (0 to 100 scale, 0 is no effect, 100 is complete control) [19]: 0 | Plant response rating, Barnyardgrass (0 to 100 scale, 0 is no effect, 100 is complete control) [20]: 0
